Test results taken from patent US11319303B2 (WIGEN BIOMEDICINE TECHNOLOGY (SHANGHAI) CO., LTD., priority 2017, dated 2022).

Each compound was assayed against LC3B (Homo sapiens, UniProt Q9GZQ8) (assay: Fluorescence Polarization (FP) Assay: displacement of FITC-labeled peptide from GST-LC3B). Conditions: not given.
Assay type: binding
Description: The compounds of the present invention for regulating the autophagy-related protein LC3B were tested by Fluorescence Polarization (FP) Assay.
Fluorescence Polarization (FP) Assay Test

`CN1C(=O)C(=CNCCN2CCN(CCO)CC2)C(=O)N(C)C1=O` [Compound 10, 5-(((2-(4-(2-hydroxyethyl)piperazin-1-yl)ethyl)amino)methylene)-1,3-dimethylpyrimidine-2,4,6(1H,3H,5H)-trione] showed an IC50 of 100 to 1000 µM.

Same assay, conditions: Fluorescence Polarization assay; GST-LC3B 180 nM, FITC-labeled peptide 18 nM, 25° C.; read-out: IC50

`CC1(C)OC(=O)C(=CNCCN2CCN(CCO)CC2)C(=O)O1` [Compound 1, 5-(((2-(4-(2-hydroxyethyl)piperazin-1-yl)ethyl)amino)methylene)-2,2-dimethyl-1,3-dioxane-4,6-dione] and `O=C1COCC(=O)C1=CNCCN1CCN(CCO)CC1` [Compound 12, 4-(((2-(4-(2-hydroxyethyl)piperazin-1-yl)ethyl)amino)methylene)-2H-pyran-3,5(4H,6H)-dione] fall in the same range of IC50: 100 to 1000 µM for the first, 100 to 1000 µM for the second.

`NC=C1C(=O)CC(c2ccccc2)CC1=O` (centres unmarked) [Compound 2, 2-(aminomethylene)-5-phenylcyclohexane-1,3-dione] and `CSC=C1C(=O)CC(c2ccccc2)CC1=O` (centres unmarked) [Compound 4A, 2-((methylthio)methylene)-5-phenylcyclohexane-1,3-dione] fall in the same range of IC50: 3 to 15 µM for the first, 3 to 15 µM for the second.

First: O=C1CC(c2ccccc2)CC(=O)C1=CNc1cccnc1 (centres unmarked) [Compound 7, 5-phenyl-2-((pyridin-3-ylamino)methylene) cyclohexane-1,3-dione]
Second: O=C1CC(c2ccccc2)CC(=O)C1=CNCCN1CCN(CCO)CC1 (centres unmarked) [Compound 8, 2-(((2-(4-(2-hydroxyethyl)piperazin-1-yl)ethyl)amino)methylene)-5-phenylcyclohexane-1,3-dione]
The IC50 of the first is higher: 3 to 15 µM for the first, less than 3 µM for the second. The second is the more potent here.

Compared with `O=C1C(=CNCCN2CCN(CCO)CC2)C(=O)c2ccccc21` [Compound 9, 2-(((2-(4-(2-hydroxyethyl)piperazin-1-yl)ethyl)amino)methylene)-1H-indene-1,3(2H)-dione], `Cc1ccccc1C1CC(=O)C(=CNCCN2CCN(CCO)CC2)C(=O)C1` (centres unmarked) [Compound 28, 2-(((2-(4-(2-hydroxyethyl)piperazin-1-yl)ethyl)amino)methylene)-5-(o-tolyl)cyclohexane-1,3-dione] is lower in IC50: 100 to 1000 µM for the first, 3 to 15 µM for the second. The second is the more potent here.

`O=C1CCCC(=O)C1=CNCCN1CCN(CCO)CC1` [Compound 11, 2-(((2-(4-(2-hydroxyethyl)piperazin-1-yl)ethyl)amino)methylene) cyclohexane-1,3-dione] and `CC1CC(=O)C(=CNCCN2CCN(CCO)CC2)C(=O)C1` (centres unmarked) [Compound 14, 2-(((2-(4-(2-hydroxyethyl)piperazin-1-yl)ethyl)amino)methylene)-5-methylcyclohexane-1,3-dione] fall in the same range of IC50: 100 to 1000 µM for the first, 100 to 1000 µM for the second.

`COc1cc(OC)c2c(c1Cl)O[C@@]1(C(=O)/C(=C\NCCN3CCN(CCO)CC3)C(=O)C[C@H]1C)C2=O` [Compound 15, (2R,6′R)-7-chloro-3′-(((2-(4-(2-hydroxyethyl)piperazin-1-yl)ethyl)amino)methylene)-4,6-dimethoxy-6′-methyl-3H-spiro[benzofuran-2,1′-cyclohexane]-2′,3,4′-trione] and `COc1cc(C2CC2)c(C2CC(=O)C(=CNCCN3CCN(CCO)CC3)C(=O)C2)cc1OC` (centres unmarked) [Compound 23, 5-(2-cyclopropyl-4,5-dimethoxyphenyl)-2-(((2-(4-(2-hydroxyethyl)piperazin-1-yl)ethyl)amino)methylene) cyclohexane-1,3-dione] fall in the same range of IC50: 3 to 15 µM for the first, 3 to 15 µM for the second.

`O=C1CC(c2ccnc3[nH]ccc23)CC(=O)C1=CNCCN1CCN(CCO)CC1` (centres unmarked) [Compound 17, 2-(((2-(4-(2-hydroxyethyl)piperazin-1-yl)ethyl)amino)methylene)-5-(1H-pyrrolo[2,3-b]pyridin-4-yl)cyclohexane-1,3-dione] and `O=C1CC(c2c[nH]c3ncccc23)CC(=O)C1=CNCCN1CCN(CCO)CC1` (centres unmarked) [Compound 18, 2-(((2-(4-(2-hydroxyethyl)piperazin-1-yl)ethyl)amino)methylene)-5-(1H-pyrrolo[2,3-b]pyridin-3-yl)cyclohexane-1,3-dione] fall in the same range of IC50: 3 to 15 µM for the first, 3 to 15 µM for the second.

First: COCCn1ccc2c(C3CC(=O)C(=CNCCN4CCN(CCO)CC4)C(=O)C3)ccnc21 (centres unmarked) [Compound 19, 2-(((2-(4-(2-hydroxyethyl)piperazin-1-yl)ethyl)amino)methylene)-5-(1-(2-methoxyethyl)-1H-pyrrolo[2,3-b]pyridin-4-yl)cyclohexane-1,3-dione]
Second: Cn1nnc(-c2ccc(C3CC(=O)C(=CNCCN4CCN(CCO)CC4)C(=O)C3)cc2)n1 (centres unmarked) [Compound 22, 2-(((2-(4-(2-hydroxyethyl)piperazin-1-yl)ethyl)amino)methylene)-5-(4-(2-methyl-2H-tetrazol-5-yl)phenyl) cyclohexane-1,3-dione]
The IC50 of the first is lower: 15 to 100 µM for the first, 100 to 1000 µM for the second.

First: O=C1CC(c2cnc3c(ccc4cccnc43)c2)CC(=O)C1=CNCCN1CCN(CCO)CC1 (centres unmarked) [Compound 20, 2-(((2-(4-(2-hydroxyethyl)piperazin-1-yl)ethyl)amino)methylene)-5-(1,10-phenanthrolin-3-yl)cyclohexane-1,3-dione]
Second: O=C1CC(c2ncnc3sccc23)CC(=O)C1=CNCCN1CCN(CCO)CC1 (centres unmarked) [Compound 27, 2-(((2-(4-(2-hydroxyethyl)piperazin-1-yl)ethyl)amino)methylene)-5-(thieno[2,3-d]pyrimidin-4-yl)cyclohexane-1,3-dione]
The IC50 of the first is higher: 100 to 1000 µM for the first, 15 to 100 µM for the second. The second is the more potent here.

Compared with `O=C1CC(c2ccc(Sc3ccccc3)cc2)CC(=O)C1=CNCCN1CCN(CCO)CC1` (centres unmarked) [Compound 21, 2-(((2-(4-(2-hydroxyethyl)piperazin-1-yl)ethyl)amino)methylene)-5-(4-(phenylthio)phenyl) cyclohexane-1,3-dione], `O=C1CC(COc2ccccc2)CC(=O)C1=CNCCN1CCN(CCO)CC1` (centres unmarked) [Compound 31, 2-(((2-(4-(2-hydroxyethyl)piperazin-1-yl)ethyl)amino)methylene)-5-(phenoxymethyl) cyclohexane-1,3-dione] is lower in IC50: 15 to 100 µM for the first, 3 to 15 µM for the second. The second is the more potent here.

First: O=C1CC(c2c[nH]c3cccc(F)c23)CC(=O)C1=CNCCN1CCN(CCO)CC1 (centres unmarked) [Compound 24, 5-(4-fluoro-1H-indol-3-yl)-2-(((2-(4-(2-hydroxyethyl)piperazin-1-yl)ethyl)amino)methylene) cyclohexane-1,3-dione]
Second: COc1cc2ncnc(C3CC(=O)C(=CNCCN4CCN(CCO)CC4)C(=O)C3)c2cc1OC (centres unmarked) [Compound 26, 5-(6,7-dimethoxyquinazolin-4-yl)-2-(((2-(4-(2-hydroxyethyl)piperazin-1-yl)ethyl)amino)methylene) cyclohexane-1,3-dione]
The IC50 of the first is lower: less than 3 µM for the first, 15 to 100 µM for the second. The first is the more potent here.

`O=C1CC(c2cnc3c(N4CCOCC4)nccn23)CC(=O)C1=CNCCN1CCN(CCO)CC1` (centres unmarked) [Compound 25, 2-(((2-(4-(2-hydroxyethyl)piperazin-1-yl)ethyl)amino)methylene)-5-(8-morpholinoimidazo [1,2-a]pyrazin-3-yl) cyclohexane-1,3-dione] and `CC1(C)O[C@@H]2[C@H](O1)[C@@H](C1CC(=O)C(=CNCCN3CCN(CCO)CC3)C(=O)C1)O[C@H]2n1cnc2c(N3CCOCC3)ncnc21` (stereo partly drawn) [Compound 30, 5-((3aR,4R,6R,6aR)-2,2-dimethyl-6-(6-morpholino-9H-purin-9-yl)tetrahydrofuro[3,4-d][1,3]dioxol-4-yl)-2-(((2-(4-(2-hydroxyethyl)piperazin-1-yl)ethyl)amino)methylene) cyclohexane-1,3-dione] fall in the same range of IC50: 100 to 1000 µM for the first, 100 to 1000 µM for the second.

`CC1(c2ccccc2)CC(=O)C(=CNCCN2CCN(CCO)CC2)C(=O)C1` (centres unmarked) [Compound 29, 2-(((2-(4-(2-hydroxyethyl)piperazin-1-yl)ethyl)amino)methylene)-5-methyl-5-phenylcyclohexane-1,3-dione] showed an IC50 of 100 to 1000 µM.
